# Like-named read-outs stand apart in the source and are kept apart here.
# Assays:
# [1] = tested on: subject with bipolar disorder; assay: Salvia divinorum by combustion and inhalation in one subject with bipolar disorder (Example 1); format: in vivo, human; settings: for mania on traditional antidepressants: same subject, very small, sub-therapeutic doses
# Text: This method was repeated approximately 20 times with consistent results.
# [2] = tested on: 50 other receptors, transporters and ion channels including mu- and delta-opioid receptors; settings: cited from earlier work
# D2 receptor = D2 receptor (Homo sapiens, UniProt P14416); settings: cited from earlier work
# D2 receptor, sequence (P14416 whole entry): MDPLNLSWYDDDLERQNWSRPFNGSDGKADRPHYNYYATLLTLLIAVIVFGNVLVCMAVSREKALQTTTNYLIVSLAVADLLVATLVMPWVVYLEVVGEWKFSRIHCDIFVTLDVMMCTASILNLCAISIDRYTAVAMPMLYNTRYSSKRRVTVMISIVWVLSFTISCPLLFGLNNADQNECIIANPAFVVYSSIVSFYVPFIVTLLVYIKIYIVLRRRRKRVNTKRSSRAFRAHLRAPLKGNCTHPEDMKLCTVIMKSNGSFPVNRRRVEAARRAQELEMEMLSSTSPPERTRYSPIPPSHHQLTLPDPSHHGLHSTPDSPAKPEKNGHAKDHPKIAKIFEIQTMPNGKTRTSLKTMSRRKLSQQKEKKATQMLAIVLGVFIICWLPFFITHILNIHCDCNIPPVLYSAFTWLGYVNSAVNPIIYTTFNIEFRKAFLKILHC
# 5HTP2A receptors = 5HTP2A receptors (Homo sapiens, UniProt P28223); settings: cited from earlier work
# 5HTP2A receptors, sequence (P28223 whole entry): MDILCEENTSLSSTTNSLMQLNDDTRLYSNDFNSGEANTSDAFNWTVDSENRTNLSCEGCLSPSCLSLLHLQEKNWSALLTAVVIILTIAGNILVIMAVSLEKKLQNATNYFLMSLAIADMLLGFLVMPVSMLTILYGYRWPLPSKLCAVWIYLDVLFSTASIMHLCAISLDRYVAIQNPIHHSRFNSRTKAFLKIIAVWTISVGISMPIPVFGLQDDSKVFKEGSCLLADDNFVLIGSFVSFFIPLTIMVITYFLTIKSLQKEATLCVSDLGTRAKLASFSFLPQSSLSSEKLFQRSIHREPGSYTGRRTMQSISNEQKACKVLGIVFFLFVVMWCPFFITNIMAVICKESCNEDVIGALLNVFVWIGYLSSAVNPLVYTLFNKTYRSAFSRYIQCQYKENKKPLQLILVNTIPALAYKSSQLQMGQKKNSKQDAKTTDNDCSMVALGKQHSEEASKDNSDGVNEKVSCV
# [3] = cited from earlier work
smiles,measurement,setting,value
CN(C)CCCC1(c2ccc(F)cc2)OCc2cc(C#N)ccc21 (centres unmarked) [celexa],mania on traditional antidepressants,[1],experienced mania
O=C1CN=C(c2ccccc2Cl)c2cc([N+](=O)[O-])ccc2N1 [clonazepam],effect on the anxiolytic and antidepressant effects of Salvia divinorum alone,"[1]; clonazepam oral and/or sublingual, about 1.5 mg b.i.d., along with cannabis and/or intranasal ketamine and inhaled Salvia divinorum",appeared to potentiate
same,"effect on anxiety, tremor or other side effects of Salvia divinorum administration","[1]; clonazepam oral and/or sublingual, along with cannabis and/or intranasal ketamine and inhaled Salvia divinorum","helped to further alleviate any anxiety, tremor or any other side effect"
CN[C@H]1CC[C@@H](c2ccc(Cl)c(Cl)c2)c2ccccc21 [sertraline],mania on traditional antidepressants,[1],experienced mania
CNC1(c2ccccc2Cl)CCCCC1=O (centres unmarked) [ketamine],effect on the anxiolytic and antidepressant effects of Salvia divinorum alone,"[1]; co-administered with inhaled Salvia divinorum, cannabis by combustion and inhalation and/or ketamine hydrochloride about 30 to about 75 mg intranasal",appeared to potentiate
COC(=O)[C@@H]1C[C@H](OC(C)=O)C(=O)[C@H]2[C@@]1(C)CC[C@H]1C(=O)O[C@H](c3ccoc3)C[C@]21C [salvinorin A],"effect on a battery of 50 other receptors, transporters and ion channels",[2],no significant effect
same,D2 receptor activity,D2 receptor,partial agonist
same,effect on 5HTP2A receptors,5HTP2A receptors,no significant effect
same,effect on 5HTP2A receptors,5HTP2A receptors; listed as Salvinorin A,no substantial effect
same,activity when administered orally,"[3]; encapsulated, oral",inactive
same,absorption on sublingual administration,[3]; sublingual,inconsistent results or no absorption at all
